Test results reported in PubChem BioAssay (NCI).
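Cultured in 96-well plates, cells were exposed to test compound for 48 hours across five concentrations. At the TGI there is no net growth.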

What was measured:
Test in all cases: growth of human tumour cells (NCI), 48 h
M14 melanoma = tested on: M14 melanoma
K-562 leukemia = tested on: K-562 leukemia
SW-620 colon = tested on: SW-620 colon
SF-268 CNS = tested on: SF-268 CNS
MDA-N = tested on: MDA-N
BT-549 breast = tested on: BT-549 breast
NCI-H460 lung = tested on: NCI-H460 lung
HCT-15 colon = tested on: HCT-15 colon
OVCAR-3 ovarian = tested on: OVCAR-3 ovarian
SK-OV-3 ovarian = tested on: SK-OV-3 ovarian
MDA-MB-435 = tested on: MDA-MB-435
ACHN renal = tested on: ACHN renal
CCRF-CEM leukemia = tested on: CCRF-CEM leukemia
NCI-H226 lung = tested on: NCI-H226 lung
EKVX NSCLC = tested on: EKVX NSCLC
NCI/ADR-RES ovarian = tested on: NCI/ADR-RES ovarian
NCI-H23 lung = tested on: NCI-H23 lung
PC-3 prostate = tested on: PC-3 prostate
UACC-62 melanoma = tested on: UACC-62 melanoma
TK-10 renal = tested on: TK-10 renal
SR leukemia = tested on: SR leukemia
UO-31 renal = tested on: UO-31 renal
CAKI-1 renal = tested on: CAKI-1 renal
MOLT-4 leukemia = tested on: MOLT-4 leukemia
786-0 renal = tested on: 786-0 renal
HS 578T breast = tested on: HS 578T breast
OVCAR-8 ovarian = tested on: OVCAR-8 ovarian
DU-145 prostate = tested on: DU-145 prostate
COLO 205 colon = tested on: COLO 205 colon
A498 renal = tested on: A498 renal
HOP-92 NSCLC = tested on: HOP-92 NSCLC
SNB-75 CNS = tested on: SNB-75 CNS
SK-MEL-28 melanoma = tested on: SK-MEL-28 melanoma
SNB-19 CNS = tested on: SNB-19 CNS
OVCAR-4 ovarian = tested on: OVCAR-4 ovarian
OVCAR-5 ovarian = tested on: OVCAR-5 ovarian
SN12C renal = tested on: SN12C renal
HT29 colon = tested on: HT29 colon
RPMI-8226 leukemia = tested on: RPMI-8226 leukemia
A549 NSCLC = tested on: A549 NSCLC
T-47D breast = tested on: T-47D breast
IGROV1 ovarian = tested on: IGROV1 ovarian
SK-MEL-2 melanoma = tested on: SK-MEL-2 melanoma
HCC-2998 colon = tested on: HCC-2998 colon
HCT-116 colon = tested on: HCT-116 colon
UACC-257 melanoma = tested on: UACC-257 melanoma
U251 CNS = tested on: U251 CNS
LOX IMVI melanoma = tested on: LOX IMVI melanoma
RXF 393 renal = tested on: RXF 393 renal
SK-MEL-5 melanoma = tested on: SK-MEL-5 melanoma
HL-60(TB) leukemia = tested on: HL-60(TB) leukemia
SF-539 CNS = tested on: SF-539 CNS
HOP-62 NSCLC = tested on: HOP-62 NSCLC
SF-295 CNS = tested on: SF-295 CNS
MDA-MB-231 breast = tested on: MDA-MB-231 breast
KM12 colon = tested on: KM12 colon
MALME-3M melanoma = tested on: MALME-3M melanoma

SMILES: C/C=C1/CN2CCc3c([nH]c4ccccc34)[C@@H]2C[C@@H]1Cc1[nH]ccc2c1[nH]c1cc(=O)ccc12
- TGI (M14 melanoma): 4.78 µM
- TGI (K-562 leukemia): > 100 µM
- TGI (SW-620 colon): > 100 µM
- TGI (SF-268 CNS): 3.33 µM
- TGI (MDA-N): 4.51 µM
- TGI (BT-549 breast): 31.4 µM
- TGI (NCI-H460 lung): 64.4 µM
- TGI (HCT-15 colon): 10.6 µM
- TGI (OVCAR-3 ovarian): 5.15 µM
- TGI (SK-OV-3 ovarian): 4.4 µM
- TGI (MDA-MB-435): 3.45 µM
- TGI (ACHN renal): > 100 µM
- TGI (CCRF-CEM leukemia): > 100 µM
- TGI (NCI-H226 lung): > 100000 nM
- TGI (EKVX NSCLC): 4.05 µM
- TGI (NCI/ADR-RES ovarian): 3.49 µM
- TGI (NCI-H23 lung): 3.34 µM
- TGI (PC-3 prostate): 6.88 µM
- TGI (UACC-62 melanoma): 3620 nM
- TGI (TK-10 renal): 4.33 µM
- TGI (SR leukemia): > 100 µM
- TGI (UO-31 renal): 2940 nM
- TGI (CAKI-1 renal): 3800 nM
- TGI (MOLT-4 leukemia): > 100 µM
- TGI (786-0 renal): 3.19 µM
- TGI (HS 578T breast): 4.15 µM
- TGI (OVCAR-8 ovarian): 3.17 µM
- TGI (DU-145 prostate): 4260 nM
- TGI (COLO 205 colon): > 100 µM
- TGI (A498 renal): 4.94 µM
- TGI (HOP-92 NSCLC): 37.6 µM
- TGI (SNB-75 CNS): 3.36 µM
- TGI (SK-MEL-28 melanoma): 4.5 µM
- TGI (SNB-19 CNS): > 100 µM
- TGI (OVCAR-4 ovarian): 3.73 µM
- TGI (OVCAR-5 ovarian): 8.64 µM
- TGI (SN12C renal): 3.17 µM

SMILES: CCOC(O)(NC(=O)C(C(F)(F)F)C(F)(F)F)C(F)(F)F (centres undefined)
- TGI (M14 melanoma): > 100 µM
- TGI (K-562 leukemia): > 100 µM
- TGI (SW-620 colon): > 100 µM
- TGI (SF-268 CNS): > 100 µM
- TGI (MDA-N): > 100 µM
- TGI (HT29 colon): > 100 µM
- TGI (BT-549 breast): > 100 µM
- TGI (RPMI-8226 leukemia): > 100 µM
- TGI (HCT-15 colon): > 100 µM
- TGI (MDA-MB-435): > 100 µM
- TGI (A549 NSCLC): > 100 µM
- TGI (T-47D breast): > 100000 nM
- TGI (ACHN renal): > 100 µM
- TGI (CCRF-CEM leukemia): > 100 µM
- TGI (IGROV1 ovarian): > 100 µM
- TGI (SK-MEL-2 melanoma): > 100 µM
- TGI (EKVX NSCLC): > 100 µM
- TGI (NCI/ADR-RES ovarian): > 100 µM
- TGI (HCC-2998 colon): > 100 µM
- TGI (NCI-H23 lung): > 100 µM
- TGI (PC-3 prostate): > 100 µM
- TGI (TK-10 renal): > 100 µM
- TGI (SR leukemia): > 100 µM
- TGI (UO-31 renal): > 100000 nM
- TGI (MOLT-4 leukemia): > 100 µM
- TGI (786-0 renal): > 100 µM
- TGI (HS 578T breast): > 100 µM
- TGI (OVCAR-8 ovarian): > 100 µM
- TGI (HCT-116 colon): > 100 µM
- TGI (UACC-257 melanoma): > 100 µM
- TGI (COLO 205 colon): > 100 µM
- TGI (A498 renal): > 100 µM
- TGI (U251 CNS): > 100 µM
- TGI (SNB-75 CNS): > 100 µM
- TGI (SK-MEL-28 melanoma): > 100 µM
- TGI (LOX IMVI melanoma): > 100 µM
- TGI (SNB-19 CNS): > 100 µM
- TGI (RXF 393 renal): > 100 µM
- TGI (OVCAR-5 ovarian): > 100 µM
- TGI (SK-MEL-5 melanoma): > 100000 nM
- TGI (HL-60(TB) leukemia): > 100 µM
- TGI (SF-539 CNS): > 100000 nM
- TGI (SN12C renal): > 100 µM

SMILES: CC(=O)Nc1ccc2c3c(cc(O)c2c1)N(C(=O)CCCCCC(=O)N1CC(CCl)c2c1cc(O)c1cc(NC(C)=O)ccc21)CC3CCl (centres undefined)
- TGI (M14 melanoma): 0.125 µM
- TGI (K-562 leukemia): > 100 µM
- TGI (SW-620 colon): > 100 µM
- TGI (MDA-N): 0.085 µM
- TGI (HT29 colon): > 33.3 µM
- TGI (BT-549 breast): 0.0736 µM
- TGI (NCI-H460 lung): > 100 µM
- TGI (HOP-62 NSCLC): > 100 µM
- TGI (HCT-15 colon): 14.2 µM
- TGI (SK-OV-3 ovarian): > 100 µM
- TGI (MDA-MB-435): 0.187 µM
- TGI (T-47D breast): 20 nM
- TGI (SF-295 CNS): > 100 µM
- TGI (IGROV1 ovarian): > 87.2 µM
- TGI (NCI-H226 lung): 91.5 nM
- TGI (EKVX NSCLC): 0.803 µM
- TGI (NCI/ADR-RES ovarian): > 100 µM
- TGI (PC-3 prostate): 1.8 µM
- TGI (UACC-62 melanoma): 24.8 nM
- TGI (TK-10 renal): > 100 µM
- TGI (CAKI-1 renal): 918 nM
- TGI (786-0 renal): 0.0412 µM
- TGI (DU-145 prostate): 39.2 nM
- TGI (HOP-92 NSCLC): 0.0392 µM
- TGI (SK-MEL-28 melanoma): > 100 µM
- TGI (LOX IMVI melanoma): > 100 µM
- TGI (MDA-MB-231 breast): 50.3 nM
- TGI (KM12 colon): 636 nM
- TGI (MALME-3M melanoma): 65.4 nM
- TGI (SNB-19 CNS): > 100 µM
- TGI (OVCAR-5 ovarian): 13.3 µM
- TGI (SK-MEL-5 melanoma): 19.8 nM
- TGI (HL-60(TB) leukemia): 26 µM
- TGI (SF-539 CNS): 205 nM
